Values joined by “and” are separate entries in the source; they are usually repeats but may differ in a detail not shown here. Equal values may be shown once.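 Compound exposure: 48 hours, 5 concentrations, 96-well plates. GI50: concentration for 50% inhibition of growth. TGI denotes the concentration required for complete inhibition of growth.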
Assays:
Assay in all cases: NCI tumour cell line growth inhibition, 48 h
CAKI-1 renal = test system: CAKI-1 renal
M19-MEL melanoma = test system: M19-MEL melanoma
MALME-3M melanoma = test system: MALME-3M melanoma
OVCAR-3 ovarian = test system: OVCAR-3 ovarian
SF-268 CNS = test system: SF-268 CNS
SK-MEL-5 melanoma = test system: SK-MEL-5 melanoma
SNB-78 CNS = test system: SNB-78 CNS
BT-549 breast = test system: BT-549 breast
DU-145 prostate = test system: DU-145 prostate
NCI/ADR-RES ovarian = test system: NCI/ADR-RES ovarian

Row | Compound | TGI (CAKI-1 renal) [µM] | TGI (M19-MEL melanoma) | TGI (MALME-3M melanoma) | TGI (OVCAR-3 ovarian) [µM] | TGI (SF-268 CNS) | TGI (SK-MEL-5 melanoma) | TGI (SNB-78 CNS) [µM] | GI50 (CAKI-1 renal) [µM] | GI50 (M19-MEL melanoma) [µM] | GI50 (MALME-3M melanoma) [µM] | GI50 (OVCAR-3 ovarian) [µM] | GI50 (SF-268 CNS) | GI50 (SK-MEL-5 melanoma) | GI50 (SNB-78 CNS) [µM] | TGI (BT-549 breast) | TGI (DU-145 prostate) | TGI (NCI/ADR-RES ovarian) [µM] | GI50 (BT-549 breast) [µM] | GI50 (DU-145 prostate) [µM] | GI50 (NCI/ADR-RES ovarian) [µM]
1 | CS(=O)(=O)CC1=Nc2nnc(CCCCCCCc3nnc4n3C(=O)C(CS(C)(=O)=O)=N4)n2C1=O | > 100 | > 100 µM | > 100 µM | > 100 | > 100 µM | > 100 µM |  |  |  |  |  |  |  |  |  |  |  |  |  | 
2 | O=C(CCn1[nH]c(=O)c(Cl)c(Cl)c1=O)NOCCCc1ccccc1 | > 100 | > 100 µM | > 100 µM | > 100 | > 100 µM | > 100 µM | > 100 |  |  |  |  |  |  |  |  |  |  |  |  | 
3 | CC(=O)[O][Pb]([O]C(C)=O)([c]1ccccc1)[c]1ccccc1 | > 100 | 9.89 µM | > 100 µM | > 100 | 16.6 µM | 14 µM | 7.63 | 13.7 | 2.77 | > 100 | 2.4 | 3.29 µM | 2.91 µM | 1.45 |  |  |  |  |  | 
4 | CCc1ccc(NCc2cc(OC)c(OC)c(OC)c2)cc1 | > 100 | 35.3 µM and > 87.8 µM | 30.8 µM and 35.6 µM | 1.32 | 43.6 µM and 64.8 µM | 7.84 µM and 14.7 µM |  |  |  |  | 0.348 | 0.862 µM and 1.78 µM | 0.297 µM and 0.104 µM |  | > 100 µM and 34.8 µM | > 100 µM and 19.5 µM |  |  |  | 
5 | COC12C=CC(CC1)c1c(O)ccc(O)c12 (configuration not stated) | > 100 | > 55.4 µM | > 100 µM | 44.2 | > 31.6 µM | > 100 µM | > 100 |  |  |  |  |  |  |  |  |  |  |  |  | 
6 | O=C(O)CS(=O)(=O)C(c1ccccc1)c1ccccc1 | > 100 |  | > 100 µM | > 100 | > 100 µM | > 100 µM |  |  |  |  |  |  |  |  | > 100 µM | > 100 µM | > 100 |  |  | 
7 | Nc1cc(=O)[nH]c(SC2=NC(N)CC(O)C2)n1 (configuration not stated) | > 100 | > 100 µM | > 100 µM | > 100 |  | > 100 µM | > 100 |  |  |  |  |  |  |  |  |  |  |  |  | 
8 | CC12CCC(=O)C=C1CCC1C2CCC2(C)C(C(=O)Cn3cnc4c(=S)nc[nH]c43)CCC12 (configuration not stated) | > 100 |  | > 100 µM | 49.6 | > 100 µM | > 100 µM |  |  |  |  |  |  |  |  | > 100 µM | 66.4 µM | > 100 |  |  | 
9 | CCOC(=O)Cc1c[nH]c(=S)[nH]c1=O | > 100 |  | > 100 µM | > 100 | > 100 µM | > 100 µM |  | > 100 |  | > 100 | > 100 | > 100 µM | > 100 µM |  | > 100 µM | > 100 µM | > 100 | > 100 | > 100 | > 100
10 | CC1=C(C(=O)OCc2ccccc2)C(c2ccc3c(c2)OCO3)n2c(nc3ccccc32)N1 (configuration not stated) | > 100 |  | > 100 µM | 0.998 | > 100 µM | > 100 µM |  | 0.275 |  | 0.37 | 0.235 | 0.513 µM | 0.472 µM |  | > 100 µM | > 100 µM | > 100 |  | 0.488 | 0.311
11 | COC(=O)[C@@H]1CSC(=S)N1C(=O)C[C@H]1CC=CC[C@H]1CC(=O)Sc1ccccc1 |  | 47.1 µM | 56.7 µM | 36.2 | 35.1 µM |  | 49.2 |  |  |  |  |  |  |  |  |  |  |  |  | 
12 | OCC1OC(n2ccc3c2ncn2ncnc32)C(O)C1O (configuration not stated) | > 100 |  | > 100 µM | > 100 | > 100 µM | 50.1 µM |  | 2.67 |  | 29 | 0.552 | 6.83 µM | 12 µM |  | 25.2 µM | > 100 µM | 63.7 | 1.23 | 0.379 | 0.712
13 | Cn1c(=O)c2[nH]c(/N=N/N3CCN(CCO)CC3)nc2n(C)c1=O | > 100 |  | > 100 µM | > 100 | > 100 µM | > 100 µM |  |  |  |  |  |  |  |  | > 100 µM | > 100 µM | > 100 |  |  | 
14 | C=C1C(=O)OC2CC3(C)C=CC(=O)C(=C)C3CC12 (configuration not stated) | 2.77 | 3.51 µM | 4.02 µM | 7.19 | 6.91 µM | 3.48 µM | 14 |  |  |  |  |  |  |  |  |  |  |  |  | 
15 | O=c1cc(CNc2cc(F)cc(F)c2)c2ccc(I)cc2[nH]1 | > 100 |  | > 100 µM | 39.6 | > 100 µM | > 100 µM |  | 0.421 |  | 0.714 | 0.336 |  | 0.641 µM |  | > 100 µM | > 100 µM | > 100 | 1.02 | 1.69 | 0.537
16 | C=C1C(=O)O[C@H]2C[C@@H](C)[C@@H]3CC(=O)OC[C@@]3(C)CC12 (some centres not stated) | 51 | > 100 µM | 35 µM | 74.6 | > 100 µM | > 100 µM |  |  |  |  |  |  |  |  |  |  |  |  |  | 
17 | Cc1ccc2c(c1)C1(C)OC(CC(N)C1O)O2 (configuration not stated) |  | > 100 µM | > 100 µM | > 100 |  | > 100 µM |  |  |  |  |  |  |  |  |  |  |  |  |  | 
18 | CC(C)(C(=O)NN)c1ccccc1 | > 100 |  | > 100 µM | > 100 | > 100 µM | > 100 µM |  |  |  |  |  |  |  |  | > 100 µM | > 100 µM | > 100 |  |  | 
19 | CN1CCc2c1nc(-c1ccccc1)c1c2N(C)CC1 | > 100 | > 100 µM | > 100 µM | > 100 | > 100 µM | > 100 µM | > 100 |  |  |  |  |  |  |  |  |  |  |  |  | 
20 | O=S(=O)(c1ccc(NC(=S)NCc2cccnc2)cc1)N1CCCCC1 | > 100 |  | > 100 µM | > 100 | > 100 µM | 45.8 µM |  | 20.4 |  | 84.9 | 52.6 | 17.2 µM | 12.1 µM |  | > 100 µM | > 100 µM | > 100 | > 100 | 6.12 | 8.36
21 | COc1ccccc1[N-]C(C1=C([O-])c2ccccc2C1=O)c1ccccc1.COc1ccccc1[N-]C(C1=C([O-])c2ccccc2C1=O)c1ccccc1.[Cu+2] (configuration not stated) | 54.5 | > 100 µM | > 100 µM | 54.2 | > 100 µM | 72.7 µM | > 100 | 12.7 | 41.7 | 6.85 | 13.8 | 5.3 µM | 5.39 µM | 8.19 |  |  |  |  |  | 
22 | CC1Oc2cc3c(-c4c(O)cc(O)c5c(O)c6c(cc45)OC(C)C(C)C6=O)c(O)cc(O)c3c(O)c2C(=O)C1C (configuration not stated) | 2.36 |  | 1.13 µM | 0.816 | 2.46 µM | 0.461 µM |  |  |  |  |  |  |  |  | 0.775 µM | 10.7 µM | 1.39 |  |  | 

— PubChem BioAssay (NCI)
